Patent US11351173B2, “Substituted pyrrolo[1,2-a]pyrimidines and their use in the treatment of medical disorders” (Bial—R&D Investments, S.A., priority 2014, dated 2022)
Converted amounts (≈) assume the structure as drawn.

Columns and labels:
[1] = Compound solubility in water; settings: water; for solubility: Compound Solubility in Water
[2] = target: T1, glucocerebrosidase (Gcase) (Homo sapiens, UniProt P04062); experiment: Glucocerebrosidase (Gcase) activation assay, 4-methylumbelliferyl-beta-D-glucopyranoside substrate, fluorescence readout; type: biochemical; settings: for activation at 0.1 µM / Percent Gcase Activation, 0.1 μM Test Compound: test compound at 0.1 μM; for activation at 0.1 µM: read-out: Percent Gcase Activation, 0.1 μM Test Compound; for activation at 1 µM / Percent Gcase Activation, 1 μM Test Compound: test compound at 1.0 μM; for activation at 1 µM: read-out: Percent Gcase Activation, 1 μM Test Compound
T1 construct: micellar solution containing 10 nM GCase and 100 nM saposin C
T1 sequence (P04062 40-536): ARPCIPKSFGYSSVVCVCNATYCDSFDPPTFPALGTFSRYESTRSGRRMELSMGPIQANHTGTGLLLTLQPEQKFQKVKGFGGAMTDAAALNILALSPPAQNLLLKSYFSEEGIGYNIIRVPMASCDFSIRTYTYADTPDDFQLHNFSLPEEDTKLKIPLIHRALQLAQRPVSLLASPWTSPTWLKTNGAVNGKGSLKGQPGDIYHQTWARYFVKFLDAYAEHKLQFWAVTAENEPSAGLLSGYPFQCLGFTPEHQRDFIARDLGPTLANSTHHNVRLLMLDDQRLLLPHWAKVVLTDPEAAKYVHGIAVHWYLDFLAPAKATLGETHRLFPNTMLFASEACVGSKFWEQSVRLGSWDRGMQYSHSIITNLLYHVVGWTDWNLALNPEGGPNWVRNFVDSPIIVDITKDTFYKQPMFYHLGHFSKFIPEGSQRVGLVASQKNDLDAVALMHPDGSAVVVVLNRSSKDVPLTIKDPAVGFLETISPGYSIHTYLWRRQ
In short: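 Fluorescence (ex 365 nm, em 440 nm) read after glycine pH 12.5 stop of a 15 min room-temperature reaction. GCase 10 nM plus saposin C 100 nM in PS/triton micelles, pH 4.7, preincubated 30 min with compound; substrate solution held 2 mM 4-MU-beta-glucoside. Screened at 1.0 and 0.1 μM; 8-point, 3-fold curves from 5 μM top.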

Structure (SMILES) | solubility [1] | activation at 0.1 µM [2] | activation at 1 µM [2] | Compound Solubility in Water [1] | Percent Gcase Activation, 0.1 μM Test Compound [2] | Percent Gcase Activation, 1 μM Test Compound [2]
CC(C)c1ccnc2c(C(=O)N[C@H]3CCCc4ccccc43)ccn12 [III-162] | 1 µg/mL (≈ 3 µM) | < 10% | > 60% |  |  | 
[2H]C1(NC(=O)c2ccn3c(C)cc(NC(C)=O)nc23)CCOc2ccccc21 (stereo not drawn) [III-163] | 2.5 µg/mL (≈ 6.84 µM) | < 10% | < 30% |  |  | 
CC[C@H](NC(=O)c1ccn2c(C)cc(C)nc12)c1ccccc1 [III-164] | 1.4 µg/mL (≈ 4.55 µM) | > 20% | > 60% |  |  | 
Cc1cc(C)n2ccc(C(=O)N[C@H](C)c3ccccc3)c2n1 [III-165] | 1.1 µg/mL (≈ 3.75 µM) | > 20% | > 60% |  |  | 
Cc1cc(C)n2ccc(C(=O)N[C@@H](C)c3ccccc3)c2n1 [III-166] | 2 µg/mL (≈ 6.82 µM) | 10 to 20% | > 60% |  |  | 
Cc1cc(C)n2ccc(C(=O)NC3CCCc4ccccc43)c2n1 (stereo not drawn) [III-167] | 0.8 µg/mL (≈ 2.5 µM) | > 20% | > 60% |  |  | 
Cc1cc(C)n2ccc(C(=O)N[C@@H]3CCCc4ccccc43)c2n1 [III-168] | 0.7 µg/mL (≈ 2.19 µM) | > 20% | > 60% |  |  | 
Cc1cc(C)n2ccc(C(=O)NC3CC4CCC(C3)O4)c2n1 (stereo not drawn) [III-169] | 29.3 µg/mL (≈ 97.9 µM) | < 10% | < 30% |  |  | 
COCCOc1ccc2c(c1)C(NC(=O)c1ccn3c(C)cc(C)nc13)CCO2 (stereo not drawn) [III-170] | 9.2 µg/mL (≈ 23.3 µM) | < 10% | 30 to 60% |  |  | 
Cc1cc(C)n2ccc(C(=O)NC3CCOc4c(F)ccc(F)c43)c2n1 (stereo not drawn) [III-171] | 1.7 µg/mL (≈ 4.76 µM) | > 20% | > 60% |  |  | 
Cc1cc(C)n2ccc(C(=O)NC3CCOc4ccc(F)c(F)c43)c2n1 (stereo not drawn) [III-172] | 1.5 µg/mL (≈ 4.2 µM) | > 20% | > 60% |  |  | 
Cc1cc(C)n2ccc(C(=O)NC3(C)CCOc4ccc(F)c(F)c43)c2n1 (stereo not drawn) [III-173] | 0.06 µg/mL (≈ 0.162 µM) | 10 to 20% | > 60% |  |  | 
Cc1cc(C)n2ccc(C(=O)NC3(C)CCOc4cc(F)c(F)cc43)c2n1 (stereo not drawn) [III-174] | 3.8 µg/mL (≈ 10.2 µM) | > 20% | > 60% |  |  | 
CCCCCOC1CCC(NC(=O)c2ccn3c(C)cc(C)nc23)C1 (stereo not drawn) [III-176] |  | 10 to 20% | > 60% | 4.6 µg/mL |  | 
CCCCCOC1CCC(NC(=O)c2ccn3c(C)cc(C)nc23)C1 (stereo not drawn) [III-177] |  |  |  | 17.2 µg/mL | *** (greater than 20% Gcase activation) | +++ (Gcase activation greater than 60%)
CCCCCO[C@H]1CC[C@H](NC(=O)c2ccn3c(C)cc(C)nc23)C1 [III-178] | 9.2 µg/mL (≈ 26.8 µM) | > 20% | > 60% |  |  | 
CCCCCO[C@H]1CC[C@@H](NC(=O)c2ccn3c(C)cc(C)nc23)C1 [III-179] | 12.3 µg/mL (≈ 35.8 µM) | < 10% | > 60% |  |  | 
CCCCCO[C@@H]1CC[C@H](NC(=O)c2ccn3c(C)cc(C)nc23)C1 [III-180] |  |  |  | 10.4 µg/mL | * (less than 10% Gcase activation) | +++ (Gcase activation greater than 60%)
Cc1cc(C)n2ccc(C(=O)NC3(C)CCOc4ccccc43)c2n1 (stereo not drawn) [III-181] | 1.8 µg/mL (≈ 5.37 µM) | > 20% | > 60% |  |  | 
CCCCO[C@H]1CC2CCC(C1)[C@H]2NC(=O)c1ccn2c(C)cc(C)nc12 [III-182] | 0.6 µg/mL (≈ 1.62 µM) | > 20% | > 60% |  |  | 
C#Cc1ccc(NC(=O)c2ccn3c(C)cc(C)nc23)c(OCCOC)c1 [III-183] | 0.04 µg/mL (≈ 0.11 µM) | > 20% | > 60% |  |  | 
Cc1cc(C)n2ccc(C(=O)NC3CCCCC34CCOCC4)c2n1 (stereo not drawn) [III-184] | 19.5 µg/mL (≈ 57.1 µM) | 10 to 20% | > 60% |  |  | 
CCCCO[C@H]1C2CCC1C[C@@H](NC(=O)c1ccn3c(C)cc(C)nc13)C2 [III-185] | 3.1 µg/mL (≈ 8.39 µM) | > 20% | > 60% |  |  | 
Cc1cc(C)n2ccc(C(=O)NC3CC=C(c4cccs4)CC3)c2n1 (stereo not drawn) [III-186] | 0.2 µg/mL (≈ 0.569 µM) | > 20% | > 60% |  |  | 
